The values that follow come from ChEMBL document CHEMBL1201862, “PubChem BioAssay data set” (2004).

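Compound exposure: 48 hours, 5 concentrations, 96-well plates. GI50: concentration for 50% inhibition of growth.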 Active and inactive are the calls of the source. Cut-off read from the data, not from the text of the source: active = GI50 up to about 1.1 µM and inactive = higher.

Among the test systems are RPMI-8226; MOLT-4; KM12; UACC-62; HOP-62; RXF 393; NCI-H460; K562; SR; NCI/ADR-RES; M14; NCI-H522; U-251; HL-60; HT-29; SK-OV-3; OVCAR-3; COLO 205; SF-539; MCF7.
Common to all, as to assay: NCI anticancer screen, dose series, 48 h

Take `COc1ccc(C2=C(Cl)c3cc(OC)c(OC)cc3C2Cl)cc1` (stereo not given): the GI50 in the experiment on RPMI-8226 is 8.17 µM (inactive); in the experiment with MOLT-4 it was 4.34 µM (inactive); in the experiment on KM12, 13.6 µM (inactive); in the experiment on UACC-62 it was 14.6 µM (inactive); in the experiment on HOP-62 it was 17.8 µM (inactive); in the experiment with RXF 393 it was 14.5 µM (inactive). Besides, the GI50 in the experiment with NCI-H460 was 9.71 µM (inactive); in the experiment with K562, 5.24 µM (inactive); with SR, 3.27 µM (inactive); with NCI/ADR-RES it was 12.7 µM (inactive); with M14, 17.2 µM (inactive); with NCI-H522, 12.5 µM (inactive). Moreover, the GI50 is 13.7 µM (inactive) in the experiment on U-251; 3.03 µM (inactive) in the experiment with HL-60; 14.8 µM (inactive) in the experiment on HT-29; 13.6 µM (inactive) in the experiment with SK-OV-3; 16.8 µM (inactive) in the experiment with OVCAR-3; 17.5 µM (inactive) in the experiment with COLO 205. Besides, the GI50 was 15.3 µM (inactive) in the experiment on SF-539 and 10.5 µM (inactive) in the experiment on MCF7.
As for `COC(=O)C(Cc1c[nH]c2ccccc12)NC(=O)c1ccc(-c2ccc(Cl)cc2Cl)o1` (stereo not given), the GI50 in the experiment on RPMI-8226 was 16 µM (inactive); with MOLT-4, 17.6 µM (inactive); with KM12, 60 µM (inactive); with UACC-62 it was 43.3 µM (inactive); with HOP-62, 45.8 µM (inactive); in the experiment with RXF 393, 28.5 µM (inactive). Moreover, the GI50 with NCI-H460 is 21.6 µM (inactive); in the experiment with K562 it was 26 µM (inactive); with SR it was 26.1 µM (inactive); with NCI/ADR-RES, 77.8 µM (inactive); in the experiment on M14 it was 64 µM (inactive); with NCI-H522, 64.3 µM (inactive). Besides, the GI50 with U-251 is 42.7 µM (inactive); in the experiment on HL-60, 10.5 µM (inactive); with HT-29 it was 15.7 µM (inactive); in the experiment on SK-OV-3, > 100 µM (inactive); in the experiment with OVCAR-3 it was 36.4 µM (inactive); in the experiment with COLO 205, 43.9 µM (inactive). For the same compound, the GI50 in the experiment with SF-539 was 21.7 µM (inactive); in the experiment on MCF7, 24.4 µM (inactive).
On to `c1csc(-c2ccc(-c3cccs3)c3nsnc23)c1`, for which the GI50 in the experiment on RPMI-8226 was 12.2 µM (inactive); in the experiment with MOLT-4 it was 8.89 µM (inactive); in the experiment on KM12, 0.327 µM (active); in the experiment with UACC-62, > 100 µM (inactive); in the experiment on HOP-62 it was 35.6 µM (inactive); with RXF 393, > 22 µM (inactive). For the same compound, the GI50 is 21.1 µM (inactive) with NCI-H460; 9.68 µM (inactive) with K562; 6.47 µM (inactive) in the experiment with SR; > 49.5 µM (inactive) in the experiment with NCI/ADR-RES; 37.8 µM (inactive) in the experiment on M14; > 100 µM (inactive) in the experiment with NCI-H522. Besides, the GI50 in the experiment on U-251 was 30.2 µM (inactive); in the experiment with HL-60, 5.4 µM (inactive); with HT-29, 49.8 µM (inactive); in the experiment with SK-OV-3, > 49.7 µM (inactive); with OVCAR-3 it was 2.04 µM (inactive); in the experiment with COLO 205, 6.56 µM (inactive). Further, the values for the GI50 in the experiment with SF-539 and in the experiment with MCF7 were 24.4 µM (inactive) and 0.11 µM (active), respectively.
Consider `S=c1nc(Nc2ccc(Br)cc2)c2c3c(sc2[nH]1)CN(N1CCc2c(sc4[nH]c(=S)nc(Nc5ccc(Br)cc5)c24)C1)CC3`, for which the GI50 in the experiment on RPMI-8226 was 19.2 µM (inactive); with MOLT-4, 12.8 µM (inactive); in the experiment on KM12, 21.6 µM (inactive); in the experiment on UACC-62 it was 15.1 µM (inactive); in the experiment with HOP-62 it was 17.5 µM (inactive); with RXF 393 it was 10.2 µM (inactive). Moreover, the GI50 is 23.8 µM (inactive) with NCI-H460; 11.1 µM (inactive) with K562; 27.5 µM (inactive) in the experiment on SR; > 50 µM (inactive) in the experiment with NCI/ADR-RES; 8.36 µM (inactive) in the experiment on M14; 12.8 µM (inactive) in the experiment with NCI-H522. Besides, the GI50 is 9.42 µM (inactive) in the experiment on U-251; 17.6 µM (inactive) in the experiment with HL-60; 15.5 µM (inactive) in the experiment with HT-29; > 50 µM (inactive) in the experiment with SK-OV-3; 25.1 µM (inactive) in the experiment with OVCAR-3; 23.6 µM (inactive) with COLO 205. Moreover, the GI50 in the experiment with SF-539 was 29.3 µM (inactive); with MCF7, 20.3 µM (inactive).
